# Assay results as given in patent publication US10385145B1, “Liquid photo initiating compound and uses of the same” (CHITEC TECHNOLOGY CO., LTD., priority 2018, dated 2019).
# Read-outs that look alike come from different tables or passages of the source.
# Legend:
# [1] = Viscosity variation test, 0° C. atmosphere for 7 days; assay type: physicochemical; settings: for Viscosity, Mixture I, 7 days / Viscosity, Mixture I, Initial: 4 parts by weight photoinitiator in Mixture I; for Viscosity, Mixture I, 7 days / Viscosity, Mixture II, 7 days / Viscosity, Mixture III, 7 days: after 7 days in 0° C. atmosphere; for Viscosity, Mixture I, Initial / Viscosity, Mixture II, Initial / Viscosity, Mixture III, Initial: before exposure; for Viscosity, Mixture II, 7 days / Viscosity, Mixture II, Initial: 4 parts by weight photoinitiator in Mixture II; for Viscosity, Mixture III, 7 days / Viscosity, Mixture III, Initial: 4 parts by weight photoinitiator in Mixture III
# [2] = Photo speed performance test; settings: 6 parts by weight photoinitiator + 2 parts Chivacure DETX in 100 parts black flexo formulation; wet film 25.15 μm; Fusion F300 D-bulb 300 W/inch
# From the text: The black flexo formulation containing Oligomer 6325-100, EM2411 and carbon black (viscosity: 1750 cP) was mixed with a photoinitiator to carry out the photo speed performance test. […] The resultant mixture was coated on a printable pearlescent film (wet film thickness: 25.15 μm); and the coated printable pearlescent film was exposed to an UV light (Fusion F300, D-bulb, 300 W/inch) for curing.
# [3] = Photoinitiator dosage test (curing performance); design: key to Curing performance, 1 time of UV light treatment / Curing performance, 2 times of UV light treatment / Curing performance, 3 times of UV light treatment / Curing performance, 4 times of UV light treatment: X: Not tack-free; Δ: Tack-free but not through-cure; ◯: Tack-free and through-cure; settings: for Curing performance, 1 time of UV light treatment / Curing performance, 2 times of UV light treatment / Curing performance, 3 times of UV light treatment / Curing performance, 4 times of UV light treatment: 365 nm, 4 W/inch
# Experimental: The commercially available black flexo ink without a photoinitiator was mixed with a photoinitiator to carry out the photo speed performance test, and the effect of the amount of photo initiating compound Ia on the photo speed performance was evaluated. […] The resultant mixture was coated on a PET film with primer (means for improving adhesion) (dry film thickness: 5 μm). The coated PET film was exposed to an UV light (wavelength: 365 nm; 4 W/inch) for curing.
# [4] = Acute oral toxicity test (LD50), OECD Test Guidelines 423; assay type: in vivo; settings: for LD50: acute oral, OECD 423; for Acute oral toxicity assessment: judged from LD50 exceeding 5000 mg/kg
# [5] = background statement; cited from earlier work
# [6] = in UV inks; background statement; cited from earlier work
# [7] = Solubility test: dissolution in acrylate mixtures I to III; assay type: physicochemical; settings: one-hour ultrasonication at room temperature
# Experimental: Mixtures I to III were prepared according to the composition provided below, and then 6 parts by weight of photoinitiator Trgacure® 369 (available from IGM), photoinitiator R-gen® 919 (available from Chitec Technology Co., Ltd.) or photo initiating compound Ia was added to each of the mixtures I to III.
# [8] = background statement, relative to Irgacure 369 where stated; cited from earlier work
# [9] = background statement; cited from earlier work; remark: listed apart in the source
# [10] = 4 parts by weight photoinitiator
# [11] = 8 parts by weight photoinitiator
structure (smiles),measurement,setting,value
CCC(Cc1ccccc1)(C(=O)c1ccc(N2CCOCC2)cc1)N(C)C (stereo not drawn) [Irgacure® 369],"Viscosity, Mixture I, 7 days",[1],60.4 cP
same,"Viscosity, Mixture I, Initial",[1],52.7 cP
same,"Viscosity, Mixture II, 7 days",[1],Precipitate
same,"Viscosity, Mixture II, Initial",[1],385.0 cP
same,"Viscosity, Mixture III, 7 days",[1],Precipitate
same,"Viscosity, Mixture III, Initial",[1],487.0 cP
same,Photo speed,[2],120 m/minute
same,"Curing performance, 1 time of UV light treatment",[3]; [10],X
same,"Curing performance, 2 times of UV light treatment",[3]; [10],X
same,"Curing performance, 3 times of UV light treatment",[3]; [10],X
same,"Curing performance, 4 times of UV light treatment",[3]; [10],Δ
same,Dissolution in black flexo ink,[3]; [11],Incomplete dissolution
same,LD50,[4],>5000 mg/kg
same,LD50,"[4]; in vivo, read-out: LD50",> 5000 mg/kg
same,Acute oral toxicity assessment,[4],no acute oral toxicity
same,Reproductive toxicity,[5],reproductive toxicity
same,Dosage above which prone to precipitate,[6],over 4 wt %
CCC(Cc1ccc(C)cc1)(C(=O)c1ccc(N2CCOCC2)cc1)N(C)C (stereo not drawn) [Irgacure® 379],Reproductive toxicity,[5],reproductive toxicity
CCC1(C)OCCN1c1ccc(C(=O)C(CC)(Cc2ccccc2)N(C)C)cc1 (stereo not drawn) [Photo initiating compound Ia],"Dissolution, Mixture I",[7]; 6 parts by weight photoinitiator in Mixture I,Completely
same,"Dissolution, Mixture II",[7]; 6 parts by weight photoinitiator in Mixture II,Completely
same,"Dissolution, Mixture III",[7]; 6 parts by weight photoinitiator in Mixture III,Completely
same,Precipitate after exposure to 0° C. atmosphere for 7 days,[1]; 4 parts by weight in mixtures I to III,no precipitate was observed
same,"Viscosity, Mixture I, 7 days",[1],51.2 cP
same,"Viscosity, Mixture I, Initial",[1],41.6 cP
same,"Viscosity, Mixture II, 7 days",[1],406.7 cP
same,"Viscosity, Mixture II, Initial",[1],351.3 cP
same,"Viscosity, Mixture III, 7 days",[1],547.8 cP
same,"Viscosity, Mixture III, Initial",[1],433.1 cP
same,Photo speed,[2],120 m/minute
same,"Curing performance, 1 time of UV light treatment",[3]; [10],X
same,"Curing performance, 2 times of UV light treatment",[3]; [10],X
same,"Curing performance, 3 times of UV light treatment",[3]; [10],X
same,"Curing performance, 4 times of UV light treatment",[3]; [10],Δ
same,"Curing performance, 1 time of UV light treatment",[3]; [11],Δ
same,Solubility in black flexo ink,[3]; amount increased up to 12 parts by weight,no solubility issue was observed
same,LD50,[4],>5000 mg/kg
same,LD50,"[4]; in vivo, read-out: LD50",> 5000 mg/kg
same,Acute oral toxicity assessment,[4],no acute oral toxicity
C=CCC(C)(C(=O)c1ccccc1)N1CCOCC1 (stereo not drawn) [compound 93],Photo speed,[8],poor photospeeds
C=CCC(C)(C(=O)c1ccccc1)N(C)C (stereo not drawn) [compound 95],Photo speed,[8],poor photospeeds
CN(C)C(C)(C(=O)c1ccccc1)c1ccccc1 (stereo not drawn) [compound 96],Photo speed,[8],poor photospeeds
C=CCC(C(=O)c1ccccc1)(c1ccccc1)N(C)C (stereo not drawn) [compound 100],Photo speed,[8],poor photospeeds
CCC(Cc1ccccc1)(C(=O)c1ccc(N(C)CCOC(C)=O)cc1)N(C)C (stereo not drawn) [compound IIa],Acute oral toxicity,[9],high acute oral toxicity
same,Photo speed,[8],comparable to Irgacure® 369
CCCCCCNc1ccc(C(=O)C(CC)(Cc2ccccc2)N(C)C)cc1 (stereo not drawn) [compound I],Photo speed,[8],comparable to that of Irgacure® 369
